Measurements published in patent US9789072B2, “Therapeutic agents for use in the propylaxis and/or treatment of hyperkinetic movement disorders” (SOM INNOVATION BIOTECH, S.L., priority 2013, dated 2017).
Read-outs that look alike come from different tables or passages of the source.

Biological target: T1, VMAT2 (Rattus norvegicus, UniProt Q01827)
T1 construct: the VMAT2 present in isolated cerebral cortical vesicles; from tissue; host or cells: rat cerebral cortex, synaptic vesicles purified by differential centrifugation
T1 sequence (Q01827 whole entry): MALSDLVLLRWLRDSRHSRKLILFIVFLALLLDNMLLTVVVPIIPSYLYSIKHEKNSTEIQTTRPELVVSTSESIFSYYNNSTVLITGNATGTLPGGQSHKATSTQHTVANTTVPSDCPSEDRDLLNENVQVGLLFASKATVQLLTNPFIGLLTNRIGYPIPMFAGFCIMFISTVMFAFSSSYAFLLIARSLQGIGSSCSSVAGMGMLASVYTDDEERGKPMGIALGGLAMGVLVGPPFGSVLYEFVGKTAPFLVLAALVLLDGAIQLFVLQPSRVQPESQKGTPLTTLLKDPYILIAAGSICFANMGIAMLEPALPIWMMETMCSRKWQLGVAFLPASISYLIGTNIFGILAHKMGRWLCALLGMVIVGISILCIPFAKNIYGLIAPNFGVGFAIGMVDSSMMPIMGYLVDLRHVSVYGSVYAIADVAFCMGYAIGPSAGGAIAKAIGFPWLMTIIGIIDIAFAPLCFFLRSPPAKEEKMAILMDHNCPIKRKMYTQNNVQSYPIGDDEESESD
Assay: VMAT2 functional assay ([3H]-dopamine uptake into isolated vesicles)
Type: biochemical
Conditions: rat cortical vesicles, [3H]-dopamine 30 nM, 30 min pre-incubation, 15 min uptake, room temperature
Description: VMAT2 Functional Assay determines the interaction between the compounds of the present invention and the VMAT2 present in isolated cerebral cortical vesicles.
Transporter Source: Rat cortical vesicles
Buffers: 100 mM potassium tartrate, 1.7 mM ascorbic acid, 0.05 mM EGTA, 0.1 mM EDTA, 2 mM Magnesium-ATP and 25 mM HEPES.
RadioLigand: • Monoamine: [3H]-Dopamine • Final ligand concentration: 30 nM
Vmax (transport rate): 1800 fmol/mg tissue/min
Positive reference-control: • Reserpine • Concentration: 10 μM
(1) Rat cortical vesicles were purified using differential centrifugation, and the vesicles obtained were diluted in the assay buffer and pre-incubated with the positive-reference-control, the comparative sample or a compound of the invention for 30 minutes at room temperature.
(2) Uptake begins with the addition of [3H]-dopamine and the mixture is allowed to incubate for 15 minutes at room temperature.
(3) After that time, the reaction was stopped by vacuum filtration, and the amount of radioactivity of the radiolabeled [3H]-dopamine trapped onto the filters was determined.
(4) The radioactivity of the [3H]-dopamine trapped was determined using liquid scintillation spectrophotometry (Beckman and Perkin Elmer). The amount of radioactivity obtained with the comparative sample or a compound of the invention was compared with the amount of radioactivity obtained with the positive-reference control (reserpine).
The IC50 value is converted to an absolute inhibition constant Ki using the Cheng-Prusoff equation. Two separate independent experiments were performed.

[1] = Experiment 1, read-out: IC50 (nM) Experiment 1

| IC50 [1] [nM] | IC50 (Experiment 2, read-out: IC50 (nM) Experiment 2) [nM] | SMILES |
| --- | --- | --- |
| 42.8 | 63 | COc1ccc(CCNCC(O)COc2cccc(C)c2)cc1OC (racemic) [Bevantolol (IA), (RS)-[2-(3,4-dimethoxyphenyl)ethyl][2-hydroxy-3-(3-methylphenoxy)propyl]amine] |
| 44.6 |  | C[C@@H](NCCCc1cccc(C(F)(F)F)c1)c1cccc2ccccc12 [Cinacalcet (IB)] |

| SMILES | IC50 [1] [nM] | IC50 (Experiment 2, read-out: IC50 (nM) Experiment 2) [nM] |
| --- | --- | --- |
| CC(COc1ccccc1)N(CCCl)Cc1ccccc1 (racemic) [Phenoxybenzamine (IC), (RS)—N-benzil-N-(2-chloroetyl)-1-phenoxy-propan-2-amine] | 58.1 |  |
